In ChEMBL document CHEMBL1156738, “Design, synthesis and evaluation of novel oxazaphosphorine prodrugs of 9-(2-phosphonomethoxyethyl)adenine (PMEA, adefovir) as potent HBV inhibitors” (Bioorg Med Chem Lett, 2009):

Tests used:
Homo sapiens = species on record: Homo sapiens; experiment: Metabolic stability in human plasma assessed as half life
[1] = Selectivity index, ratio of CC50 for human HepG2(2.2.15) cells to IC50 for Hepatitis B virus; assay type: functional
Hepatitis B virus [2] = experiment: Antiviral activity against Hepatitis B virus infected HepG2(2.2.15) cells assessed as inhibition of viral cytoplasmic DNA synthesis by real-time PCR; assay type: functional, organism-based
[3] = Metabolic stability in human liver microsomes assessed as half life; assay type: ADME, Microsome
[4] = Cytotoxicity against human HepG2(2.2.15) cells; assay type: cell-based
Hepatitis B virus [5] = experiment: Ratio of compound IC50 to adefovir dipivoxil IC50 for Hepatitis B virus; assay type: functional

| Compound | half-life (Homo sapiens) [h] | Ratio CC50/IC50 [1] | IC50 (Hepatitis B virus [2]) [µM] | half-life [3] [h] | CC50 [4] [µM] | Ratio (Hepatitis B virus [5]) |
| --- | --- | --- | --- | --- | --- | --- |
| COC(=O)[C@H](C(C)C)N1CCCO[P@]1(=O)COCCn1cnc2c(N)ncnc21.O=C(O)/C=C/C(=O)O | > 6 | 4800 | 0.12 | 3.6 | 577 | 3 |
| CCOC(=O)[C@@H](C(C)C)N1CCCO[P@]1(=O)COCCn1cnc2c(N)ncnc21.O=C(O)/C=C/C(=O)O | – | 8 | 50 | – | 400 | – |
| CCOC(=O)[C@H](C(C)C)N1CCCO[P@]1(=O)COCCn1cnc2c(N)ncnc21.O=C(O)/C=C/C(=O)O | – | 187 | 3 | – | 560 | – |
| CC(C)OC(=O)[C@H](C(C)C)N1CCCO[P@]1(=O)COCCn1cnc2c(N)ncnc21.O=C(O)/C=C/C(=O)O | – | 103 | 5.76 | – | 592 | – |
| COC(=O)[C@H](C(C)C)N1CCCO[P@@]1(=O)COCCn1cnc2c(N)ncnc21.O=C(O)/C=C/C(=O)O | – | – | – | > 6 | – | – |
| CC(C)(C)C(=O)OCOP(=O)(COCCn1cnc2c(N)ncnc21)OCOC(=O)C(C)(C)C [ADEFOVIR DIPIVOXIL] | – | – | 0.33 | – | 555 | – |
| COC(=O)[C@H](CC(C)C)N1CCCOP1(=O)COCCn1cnc2c(N)ncnc21.O=C(O)/C=C/C(=O)O (some centres not stated) | – | 694 | 0.32 | – | 222 | – |
| CCOC(=O)[C@H](C(C)C)N1CCCO[P@@]1(=O)COCCn1cnc2c(N)ncnc21.O=C(O)/C=C/C(=O)O | – | 9 | 50 | – | 468 | – |
| COC(=O)[C@H](C)N1CCCO[P@@]1(=O)COCCn1cnc2c(N)ncnc21.O=C(O)/C=C/C(=O)O | – | 649 | 0.91 | – | 590 | – |
| COC(=O)CN1CCCOP1(=O)COCCn1cnc2c(N)ncnc21.O=C(O)/C=C/C(=O)O (racemic) | – | 683 | 0.88 | – | 602 | – |
| COC(=O)[C@H](Cc1ccccc1)N1CCCOP1(=O)COCCn1cnc2c(N)ncnc21.O=C(O)/C=C/C(=O)O (some centres not stated) | – | 277 | 2.62 | – | 726 | – |
| COC(=O)[C@H](C)N1CCCO[P@]1(=O)COCCn1cnc2c(N)ncnc21.O=C(O)/C=C/C(=O)O | – | 1270 | 0.51 | – | 650 | – |
| CCC(C)[C@@H](C(=O)OC)N1CCCOP1(=O)COCCn1cnc2c(N)ncnc21.O=C(O)/C=C/C(=O)O (some centres not stated) | – | 293 | 2.21 | – | 648 | – |
| CCOC(=O)[C@@H](C(C)C)N1CCCO[P@@]1(=O)COCCn1cnc2c(N)ncnc21.O=C(O)/C=C/C(=O)O | – | 9 | 50 | – | 439 | – |
